Experimental data taken from ChEMBL document CHEMBL1131537, “Synthesis of [(2'S, 3'S)-bis(hydroxylmethyl)pyrrolidin-1-yl] purine and pyrimidine nucleosides as potential antiviral agents” (Bioorg Med Chem Lett, 1998).
Calls of active or inactive are those of the source.

Key:
Type in all cases: functional, cell-based
[1] = system: Vero; experiment: Antiviral activity was evaluated against HSV-2 in Vero cells at concentration up to 10 ug/mL by plaque reduction assay; Inactive; details: Chlorocebus sabaeus
[2] = system: Vero; experiment: Antiviral activity was evaluated against HSV-1 in Vero cells at concentration up to 10 ug/mL by plaque reduction assay; Inactive; details: Chlorocebus sabaeus
[3] = system: MT4; experiment: […] was evaluated against HIV-1 in MT-4 cells at concentration up to 10 ug/mL by indirect immunofluorescence assay; Inactive; details: Homo sapiens

Measured: Activity

Nc1ncnc2c1ncn2N1CC[C@H](CO)[C@H]1CO
inactive: all assays above

Cc1cn(N2CC[C@H](CO)[C@H]2CO)c(=O)[nH]c1=O
inactive: all assays above
